Source: patent publication US20040062842A1, “Green soybeans whose color is prevented from discoloring” (priority 2002, published 2004)

How the values were obtained:
[1] = Suppression of discoloration by immersing green soybeans in aqueous solutions of anti-oxidation materials; design: species or system green soybean; details: green soybeans immersed in aqueous solutions, permeation into tissues under depressurization
From the text: A test for suppressing discoloration of a green color was made by immersing green soybeans in aqueous solutions of various anti-oxidation materials, such as ascorbic acid, tocopherol and carotenoids, thus causing the anti-oxidation materials to permeate into tissues under depressurization and to capture radicals inducing decomposition of chlorophyll.

[2] = Suppression of discoloration of a chlorophyll/ethanol solution preserved under illumination of light; details: 10° C., 17 hours, 1600 Lux; for Suppression Effect (%): 0.01 M anti-oxidation material in chlorophyll/ethanol solution (25 μg/ml), absorbance at 640 nm, relative to control sample; for effect of retaining a green color against light: addition to chlorophyll/ethanol solution
Procedure: Next, to check the effect resulting when anti-oxidation materials permeated into tissues, particularly chloroplasts, of a living body, a test for suppressing discoloration of a green color was made by preparing a chlorophyll/ethanol solution including chlorophyll, dissolving each of various anti-oxidation materials in the solution, and preserving it under illumination of light. More specifically, 4 ml of the chlorophyll/ethanol solution was prepared by adding 25 μg of chlorophyll in 1 ml of ethanol, and each anti-oxidation material, i.e., 0.01 M of ascorbic acid (aqueous solution), 0.01 M of α-tochopherol (ethanol solution), and 0.01 M of β-carotene (ethanol solution), was dissolved in the chlorophyll/ethanol solution. After enclosing each test sample, the test sample was preserved at 10° C. for 17 hours under 1600 Lux. Then, a change in absorbance of the test sample at 640 nm between before and after the preservation was measured. A higher value of the absorbance at 640 nm means a larger amount of chlorophyll. In Table 1, “control sample” represents a sample in which water was added, and “suppression effect” represents a chlorophyll reduction rate of each test sample calculated on condition that a chlorophyll reduction rate of the control sample after the preservation under illumination of light was assumed to be 100.

| Compound | effect of suppressing discoloration of a green color [1] | Suppression Effect (%) [2] | effect of retaining a green color against light [2] |
| --- | --- | --- | --- |
| O=C1O[C@H]([C@@H](O)CO)C(O)=C1O [Ascorbic acid aqueous solution, ascorbic acid] | hardly confirmed | 0% | – |
| Cc1c(C)c2c(c(C)c1O)CCC(C)(CCCC(C)CCCC(C)CCCC(C)C)O2 (stereo not drawn) [α-Tochopherol/ethanol solution, α-tochopherol] | – | 52.4% | apparent effect of retaining a green color against light was confirmed |
| tocopherol | hardly confirmed | – | – |
| CC1=C(/C=C/C(C)=C/C=C/C(C)=C/C=C/C=C(C)/C=C/C=C(C)/C=C/C2=C(C)CCCC2(C)C)C(C)(C)CCC1 [β-Carotene/ethanol solution, β-carotene] | – | 56.1% | apparent effect of retaining a green color against light was confirmed |
